{"source": "patent US20260102507A1", "about": "“CAMPTOTHECIN DERIVATIVE FOR TREATING OR PREVENTING CANCER AND ANTIBODY-DRUG CONJUGATE THEREOF” (CHENGDU BRILLIANT PHARMACEUTICAL CO., LTD., priority 2023, published 2026)", "assay_in_all_cases": "Cytotoxicity assay of camptothecin derivative toxins (Example A')", "format_in_all_cases": "cell-based", "key": {"[1]": {"system": "human lung adenocarcinoma cell line NCI-H441", "conditions": "read-out: IC50 (nM) NCI-H441", "protocol": "(§1) The camptothecin derivatives of the Examples of the present application were serially diluted with DMSO and the corresponding cell culture medium, and were added into a white-walled 96-well plate. Tumor cells (human ovarian cancer cell line SK-OV-3; human colon cancer cell line HCT116; human lung adenocarcinoma cell line A549; human lung adenocarcinoma cell line NCI-H441; human oral epidermoid carcinoma cell line KB) in logarithmic growth phase were digested and adjusted to a density of approximately 3.33×10^4 cells/mL. The cells were plated at 90 µL/well on the white-walled 96-well plate that was pre-loaded with the samples, followed by incubation at 37° C. in a 5% CO2 incubator for 3 days. The growth inhibitory effect of the small molecule compounds on tumor cells was evaluated by the Cell Titer Turbo 2.0 Luminescent Cell Viability Assay (Damas life, RA-GL11). Relative light unit (RLU) values were read from the cell culture plates using a microplate reader. Experimental data were analyzed with GraphPad Prism 8.0 software to calculate IC50 values."}, "[2]": {"system": "human lung adenocarcinoma cell line A549", "conditions": "read-out: IC50 (nM) A549", "protocol": "as §1"}, "[3]": {"system": "human colon cancer cell line HCT116", "conditions": "read-out: IC50 (nM) HCT116", "protocol": "as §1"}, "[4]": {"system": "human ovarian cancer cell line SK-OV-3", "conditions": "read-out: IC50 (nM) SK-OV-3", "protocol": "as §1"}, "[5]": {"conditions": "Homo sapiens, NCI-H441, 72 h, Example A', 3 days incubation"}, "[6]": {"conditions": "Homo sapiens, A549, 72 h, Example A', 3 days incubation"}, "[7]": {"conditions": "Homo sapiens, HCT-116, 72 h, Example A', 3 days incubation"}, "[8]": {"conditions": "Homo sapiens, SK-OV-3, 72 h, Example A', 3 days incubation"}}, "note": "Like-named read-outs stand apart in the source and are kept apart here."}
{"smiles": "CC[C@@]1(O)C(=O)OCc2c1cc1n(c2=O)Cc2c-1nc1cc(F)c(C)cc1c2NCCO", "note": "[STI-F5, (S)-4-ethyl-8-fluoro-4-hydroxy-11-((2-hydroxyethyl)amino)-9-methyl-1,12-dihydro-14H-pyrano[3′,4′:6,7]indolizino[1,2-b]quinoline-3,14(4H)-dione]", "values": [{"measurement": "IC50", "setting": "[1]; [5]", "value": 32.3, "unit": "nM"}, {"measurement": "IC50", "setting": "[2]; [6]", "value": 387, "unit": "nM"}, {"measurement": "IC50", "setting": "[3]; [7]", "value": 19, "unit": "nM"}, {"measurement": "IC50", "setting": "[4]; [8]", "value": 16.9, "unit": "nM"}]}
{"smiles": "CC[C@@]1(O)C(=O)OCc2c1cc1n(c2=O)Cc2c-1nc1cc(F)c(C)cc1c2NC/C=C/CO", "note": "[STI-F8, (S,E)-4-ethyl-8-fluoro-4-hydroxy-11-((4-hydroxybut-2-en-1-yl)amino)-9-methyl-1,12-dihydro-14H-pyrano[3′,4′:6,7]indolizino[1,2-b]quinoline-3,14(4H)-dione]", "values": [{"measurement": "IC50", "setting": "[1]; [5]", "value": 24.9, "unit": "nM"}, {"measurement": "IC50", "setting": "[2]; [6]", "value": 278, "unit": "nM"}, {"measurement": "IC50", "setting": "[3]; [7]", "value": 11.4, "unit": "nM"}, {"measurement": "IC50", "setting": "[4]; [8]", "value": 12.3, "unit": "nM"}]}
{"smiles": "CC[C@@]1(O)C(=O)OCc2c1cc1n(c2=O)Cc2c-1nc1cc(F)c(C)cc1c2N1CCC(CO)CC1", "note": "[STI-F14, (S)-4-ethyl-8-fluoro-4-hydroxy-11-(4-(hydroxymethyl)piperidin-1-yl)-9-methyl-1,12-dihydro-14H-pyrano[3′,4′:6,7]indolizino[1,2-b]quinoline-3,14(4H)-dione]", "values": [{"measurement": "IC50", "setting": "[1]; [5]", "value": 11.1, "unit": "nM"}, {"measurement": "IC50", "setting": "[2]; [6]", "value": 156, "unit": "nM"}, {"measurement": "IC50", "setting": "[3]; [7]", "value": 12.4, "unit": "nM"}]}
{"smiles": "CC[C@@]1(O)C(=O)OCc2c1cc1n(c2=O)Cc2c-1nc1cc(F)c(C)cc1c2N[C@H]1CC[C@H](CO)CC1", "note": "[STI-F15, (S)-4-ethyl-8-fluoro-4-hydroxy-11-(((1r,4S)-4-(hydroxymethyl)cyclohexyl)amino)-9-methyl-1,12-dihydro-14H-pyrano[3′,4′:6,7]indolizino[1,2-b]quinoline-3,14(4H)-dione]", "values": [{"measurement": "IC50", "setting": "[1]; Example A', 3 days incubation", "value": 50.9, "unit": "nM"}, {"measurement": "IC50", "setting": "[2]; Example A', 3 days incubation", "value": 542, "unit": "nM"}, {"measurement": "IC50", "setting": "[3]; Example A', 3 days incubation", "value": 22.6, "unit": "nM"}, {"measurement": "IC50", "setting": "[4]; Example A', 3 days incubation", "value": 28.7, "unit": "nM"}]}
{"smiles": "CC[C@@]1(O)C(=O)OCc2c1cc1n(c2=O)Cc2c-1nc1cc(F)c(C)cc1c2NCCCCCO", "note": "[STI-F17, (S)-4-ethyl-8-fluoro-4-hydroxy-11-((5-hydroxypentyl)amino)-9-methyl-1,12-dihydro-14H-pyrano[3′,4′:6,7]indolizino[1,2-b]quinoline-3,14(4H)-dione]", "values": [{"measurement": "IC50", "setting": "[1]; [5]", "value": 28.7, "unit": "nM"}, {"measurement": "IC50", "setting": "[2]; [6]", "value": 377, "unit": "nM"}, {"measurement": "IC50", "setting": "[3]; [7]", "value": 17.2, "unit": "nM"}, {"measurement": "IC50", "setting": "[4]; [8]", "value": 20, "unit": "nM"}]}
{"smiles": "CC[C@@]1(O)C(=O)OCc2c1cc1n(c2=O)Cc2c-1nc1cc3c(cc1c2NCCCCO)OCO3", "note": "[STI-F18, (S)-7-ethyl-7-hydroxy-14-((4-hydroxybutyl)amino)-10,13-dihydro-11H-[1,3]dioxolo[4,5-g]pyrano[3′,4′:6,7]indolizino[1,2-b]quinoline-8,11(7H)-dione]", "values": [{"measurement": "IC50", "setting": "[1]; Homo sapiens, NCI-H441, 72 h", "value": 42, "unit": "nM"}, {"measurement": "IC50", "setting": "[2]; Homo sapiens, A549, 72 h", "value": 454, "unit": "nM"}, {"measurement": "IC50", "setting": "[3]; Homo sapiens, HCT-116, 72 h", "value": 58.7, "unit": "nM"}, {"measurement": "IC50", "setting": "[4]; Homo sapiens, SK-OV-3, 72 h", "value": 44.6, "unit": "nM"}]}
